# Test system: patients with narcolepsy type 1 or type 2
# Assay: MWT, 12-week phase 3 study in narcolepsy
# Assay type: in vivo, human
# Protocol: The MWT is an objective test used to measure how alert a subject is during the day. The test consists of four sleep trials with two hours in between the trials. The first trial is performed 1.5-3 hours after the subject's normal wake-up time. Sensors are placed on the head, face, and chin to detect when the subject is asleep and awake during the test. The subject sits quietly in bed with his or her back and head supported by a pillow and is asked to sit still and look straight ahead while trying to stay awake as long as possible. Each trial lasts 40 minutes or until the subject is asleep for 90 seconds. Between trials, the subject stays out of bed and occupies himself or herself to remain awake. Falling asleep in an average of less than eight minutes is considered abnormal. About 40-60% of subjects with normal sleep stay awake for the entire 40 minutes of all four trials.
# The study was a 12-week, double-blind, randomized, placebo-controlled, parallel-group study. Patients were randomized (1:1:1:1) to receive placebo or APC 75, 150, or 300 mg; randomization was stratified by the presence or absence of cataplexy.
# Key inclusion criteria included adults 18-75 years old, inclusive, with a diagnosis of narcolepsy type 1 or type 2 according to ICSD-3 (American Academy of Sleep Medicine. The International Classification of Sleep Disorders—Third Edition (ICSD-3). Darien, IL: American Academy of Sleep Medicine; 2014) or DSM-5 (American Psychiatric Association. Diagnostic and Statistical Manual of Mental Disorders Fifth Edition (DSM-5). Arlington, VA: American Psychiatric Association; 2013) criteria, baseline mean sleep latency <25 minutes on the first 4 trials of a 5-trial, 40-minute Maintenance of Wakefulness Test (MWT) and baseline Epworth Sleepiness Scale (ESS) (Johns, Sleep 14(6):540 (1991)) score ≥10, usual nightly total sleep time ≥6 hours, and body mass index between 18 and 45 kg/m^2.
# Co-primary endpoints were change from baseline to week 12 in MWT mean sleep latency and ESS score. The key secondary endpoint was the percentage of patients who reported improvement on the Patient Global Impression of Change (PGI-C) (Guy, ECDEU assessment manual for psychopharmacology, revised. US Department of Health, Education, and Welfare publication (ADM 76-338). Rockville, MD: National Institute of Mental Health; 1976) at week 12. Other secondary and exploratory endpoints included changes on function and quality-of-life and changes in the number of cataplexy attacks per week. Safety evaluation included adverse events, laboratory tests, and vital signs.
# Efficacy analyses were based on the modified intent-to-treat population (mITT), defined as all patients who were randomized, received at least 1 dose of study drug, and had baseline and at least 1 post-baseline evaluation of both MWT and ESS. MWT and ESS were analyzed using a mixed-effect repeated measures (MMRM) model. PGI-C was analyzed using a chi-square test. A fixed hierarchical testing procedure was used to correct for multiplicity, starting with the highest dose of APC for the co-primary endpoints and the key secondary endpoint; testing proceeded with each subsequent lower doses.
# [1] = Combined JZP-110, Week 12, mITT
smiles,measurement,setting,value
"NC(=O)OC[C@H](N)Cc1ccccc1 [JZP-110, (R)-2-amino-3-phenylpropyl carbamate]","MWT mean sleep latency increase from baseline >=15 minutes, n subjects","300 mg, Week 1, mITT",11
same,"MWT mean sleep latency increase from baseline >=20 minutes, % of subjects","300 mg, Week 1, mITT",(32.0) %
same,"MWT mean sleep latency increase from baseline >=20 minutes, n subjects","300 mg, Week 1, mITT",8
same,"MWT mean sleep latency increase from baseline >=25 minutes, % of subjects","300 mg, Week 1, mITT",(24.0) %
same,"MWT mean sleep latency increase from baseline >=25 minutes, n subjects","300 mg, Week 1, mITT",6
same,"MWT mean sleep latency increase from baseline >=30 minutes, % of subjects","300 mg, Week 1, mITT",(20.0) %
same,"MWT mean sleep latency increase from baseline >=30 minutes, n subjects","300 mg, Week 1, mITT",5
same,"MWT mean sleep latency increase from baseline >=5 minutes, % of subjects","300 mg, Week 4, mITT",(69.2) %
same,"MWT mean sleep latency increase from baseline >=5 minutes, n subjects","300 mg, Week 4, mITT",36
same,"MWT mean sleep latency increase from baseline >=10 minutes, % of subjects","300 mg, Week 4, mITT",(53.8) %
same,"MWT mean sleep latency increase from baseline >=10 minutes, n subjects","300 mg, Week 4, mITT",28
same,"MWT mean sleep latency increase from baseline >=15 minutes, % of subjects","300 mg, Week 4, mITT",(36.5) %
same,"MWT mean sleep latency increase from baseline >=15 minutes, n subjects","300 mg, Week 4, mITT",19
same,"MWT mean sleep latency increase from baseline >=20 minutes, % of subjects","300 mg, Week 4, mITT",(25.0) %
same,"MWT mean sleep latency increase from baseline >=20 minutes, n subjects","300 mg, Week 4, mITT",13
same,"MWT mean sleep latency increase from baseline >=25 minutes, % of subjects","300 mg, Week 4, mITT",(17.3) %
same,"MWT mean sleep latency increase from baseline >=25 minutes, n subjects","300 mg, Week 4, mITT",9
same,"MWT mean sleep latency increase from baseline >=30 minutes, % of subjects","300 mg, Week 4, mITT",(13.5) %
same,"MWT mean sleep latency increase from baseline >=30 minutes, n subjects","300 mg, Week 4, mITT",7
same,"MWT mean sleep latency increase from baseline >=5 minutes, % of subjects","300 mg, Week 12, mITT",(60.0) %
same,"MWT mean sleep latency increase from baseline >=5 minutes, n subjects","300 mg, Week 12, mITT",24
same,"MWT mean sleep latency increase from baseline >=10 minutes, % of subjects","300 mg, Week 12, mITT",(50.0) %
same,"MWT mean sleep latency increase from baseline >=10 minutes, n subjects","300 mg, Week 12, mITT",20
same,"MWT mean sleep latency increase from baseline >=15 minutes, % of subjects","300 mg, Week 12, mITT",(37.5) %
same,"MWT mean sleep latency increase from baseline >=15 minutes, n subjects","300 mg, Week 12, mITT",15
same,"MWT mean sleep latency increase from baseline >=20 minutes, % of subjects","300 mg, Week 12, mITT",(27.5) %
same,"MWT mean sleep latency increase from baseline >=20 minutes, n subjects","300 mg, Week 12, mITT",11
same,"MWT mean sleep latency increase from baseline >=25 minutes, % of subjects","300 mg, Week 12, mITT",(15.0) %
same,"MWT mean sleep latency increase from baseline >=25 minutes, n subjects","300 mg, Week 12, mITT",6
same,"MWT mean sleep latency increase from baseline >=30 minutes, % of subjects","300 mg, Week 12, mITT",(7.5) %
same,"MWT mean sleep latency increase from baseline >=30 minutes, n subjects","300 mg, Week 12, mITT",3
same,MWT mean sleep latency relative to placebo,"150 and 300 mg, week 12, mITT",significantly increased MWT mean sleep latency relative to placebo
same,"MWT mean sleep latency increase from baseline >=5 minutes, % of subjects","Combined JZP-110, Week 1, mITT",(53.9) %
same,"MWT mean sleep latency increase from baseline >=5 minutes, n subjects","Combined JZP-110, Week 1, mITT",41
same,"MWT mean sleep latency increase from baseline >=10 minutes, % of subjects","Combined JZP-110, Week 1, mITT",(42.1) %
same,"MWT mean sleep latency increase from baseline >=10 minutes, n subjects","Combined JZP-110, Week 1, mITT",32
same,"MWT mean sleep latency increase from baseline >=15 minutes, % of subjects","Combined JZP-110, Week 1, mITT",(27.6) %
same,"MWT mean sleep latency increase from baseline >=15 minutes, n subjects","Combined JZP-110, Week 1, mITT",21
same,"MWT mean sleep latency increase from baseline >=20 minutes, % of subjects","Combined JZP-110, Week 1, mITT",(17.1) %
same,"MWT mean sleep latency increase from baseline >=20 minutes, n subjects","Combined JZP-110, Week 1, mITT",13
same,"MWT mean sleep latency increase from baseline >=25 minutes, % of subjects","Combined JZP-110, Week 1, mITT",(9.2) %
same,"MWT mean sleep latency increase from baseline >=25 minutes, n subjects","Combined JZP-110, Week 1, mITT",7
same,"MWT mean sleep latency increase from baseline >=30 minutes, % of subjects","Combined JZP-110, Week 1, mITT",(6.6) %
same,"MWT mean sleep latency increase from baseline >=30 minutes, n subjects","Combined JZP-110, Week 1, mITT",5
same,"MWT mean sleep latency increase from baseline >=5 minutes, % of subjects","Combined JZP-110, Week 4, mITT",(57.6) %
same,"MWT mean sleep latency increase from baseline >=5 minutes, n subjects","Combined JZP-110, Week 4, mITT",87
same,"MWT mean sleep latency increase from baseline >=10 minutes, % of subjects","Combined JZP-110, Week 4, mITT",(40.4) %
same,"MWT mean sleep latency increase from baseline >=10 minutes, n subjects","Combined JZP-110, Week 4, mITT",61
same,"MWT mean sleep latency increase from baseline >=15 minutes, % of subjects","Combined JZP-110, Week 4, mITT",(26.5) %
same,"MWT mean sleep latency increase from baseline >=15 minutes, n subjects","Combined JZP-110, Week 4, mITT",40
same,"MWT mean sleep latency increase from baseline >=20 minutes, % of subjects","Combined JZP-110, Week 4, mITT",(15.9) %
same,"MWT mean sleep latency increase from baseline >=20 minutes, n subjects","Combined JZP-110, Week 4, mITT",24
same,"MWT mean sleep latency increase from baseline >=25 minutes, % of subjects","Combined JZP-110, Week 4, mITT",(9.3) %
same,"MWT mean sleep latency increase from baseline >=25 minutes, n subjects","Combined JZP-110, Week 4, mITT",14
same,"MWT mean sleep latency increase from baseline >=30 minutes, % of subjects","Combined JZP-110, Week 4, mITT",(4.6) %
same,"MWT mean sleep latency increase from baseline >=30 minutes, n subjects","Combined JZP-110, Week 4, mITT",7
same,"MWT mean sleep latency increase from baseline >=5 minutes, % of subjects",[1],(52.9) %
same,"MWT mean sleep latency increase from baseline >=5 minutes, n subjects",[1],72
same,"MWT mean sleep latency increase from baseline >=10 minutes, % of subjects",[1],(39.0) %
same,"MWT mean sleep latency increase from baseline >=10 minutes, n subjects",[1],53
same,"MWT mean sleep latency increase from baseline >=15 minutes, % of subjects",[1],(29.4) %
same,"MWT mean sleep latency increase from baseline >=15 minutes, n subjects",[1],40
same,"MWT mean sleep latency increase from baseline >=20 minutes, % of subjects",[1],(17.6) %
same,"MWT mean sleep latency increase from baseline >=20 minutes, n subjects",[1],24
same,"MWT mean sleep latency increase from baseline >=25 minutes, % of subjects",[1],(8.1) %
same,"MWT mean sleep latency increase from baseline >=25 minutes, n subjects",[1],11
same,"MWT mean sleep latency increase from baseline >=30 minutes, % of subjects",[1],(2.9) %
same,"MWT mean sleep latency increase from baseline >=30 minutes, n subjects",[1],4
same,"MWT mean sleep latency, effect at week 1","all doses, as early as week 1",Statistically significant effects
same,Tolerance to the wake-promoting effects,over the 12 weeks of the study,no apparent tolerance to the wake-promoting effects
